# From the Kinase Knowledgebase extract (Sharma et al. 2016)
# Target: EGFR (rat) (UniProt P00533)
# Settings: rat-1/her cells
# Chain of EGFR (rat) (P00533 whole entry, looked up): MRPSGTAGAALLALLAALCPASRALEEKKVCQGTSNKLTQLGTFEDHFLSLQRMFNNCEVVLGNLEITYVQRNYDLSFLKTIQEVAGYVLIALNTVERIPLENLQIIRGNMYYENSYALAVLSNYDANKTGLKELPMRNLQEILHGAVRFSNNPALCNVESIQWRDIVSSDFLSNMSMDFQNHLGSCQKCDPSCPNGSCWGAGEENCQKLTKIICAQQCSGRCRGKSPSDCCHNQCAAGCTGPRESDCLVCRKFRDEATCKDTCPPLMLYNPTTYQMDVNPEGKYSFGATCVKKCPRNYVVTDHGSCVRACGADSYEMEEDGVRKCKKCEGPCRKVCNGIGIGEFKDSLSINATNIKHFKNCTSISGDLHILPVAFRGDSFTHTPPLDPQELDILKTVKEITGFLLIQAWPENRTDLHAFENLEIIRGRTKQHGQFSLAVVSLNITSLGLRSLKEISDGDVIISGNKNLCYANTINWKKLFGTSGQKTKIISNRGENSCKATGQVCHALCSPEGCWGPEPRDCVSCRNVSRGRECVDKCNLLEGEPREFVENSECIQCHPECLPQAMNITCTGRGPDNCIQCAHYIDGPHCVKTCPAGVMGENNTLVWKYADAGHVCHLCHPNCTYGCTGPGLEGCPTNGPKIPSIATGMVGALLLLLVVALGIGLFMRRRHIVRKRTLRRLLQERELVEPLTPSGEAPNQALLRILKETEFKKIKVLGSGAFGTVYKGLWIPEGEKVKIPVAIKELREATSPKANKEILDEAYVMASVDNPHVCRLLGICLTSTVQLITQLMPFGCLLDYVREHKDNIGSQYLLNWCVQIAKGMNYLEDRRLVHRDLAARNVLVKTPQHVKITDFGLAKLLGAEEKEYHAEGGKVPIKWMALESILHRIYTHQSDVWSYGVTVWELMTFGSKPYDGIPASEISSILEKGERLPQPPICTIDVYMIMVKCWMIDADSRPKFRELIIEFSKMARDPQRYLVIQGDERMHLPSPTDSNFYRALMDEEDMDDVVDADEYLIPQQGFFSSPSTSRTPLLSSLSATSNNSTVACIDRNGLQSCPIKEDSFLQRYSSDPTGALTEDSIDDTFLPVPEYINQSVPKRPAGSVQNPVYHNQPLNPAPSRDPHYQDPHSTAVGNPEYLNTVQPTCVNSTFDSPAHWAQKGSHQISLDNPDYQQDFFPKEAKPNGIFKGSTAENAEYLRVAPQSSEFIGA
row,IC50,SMILES
1,10 µM,COC1=C(Br)C(=O)[C@]2(C=C1Br)CO2
2,35 µM,COc1c(Br)cc(C=O)c(O)c1Br
3,55 µM,COC1=C(Br)C(=O)[C@](CC#N)(OC(C)=O)C=C1Br
4,120 µM,O=Cc1cc(Br)cc(Br)c1O

# Same assay, conditions: rat-1/her cells, dose or concentration not given here
row,SMILES,inhibition
1,COc1c(Br)cc(CC#N)c(O)c1Br,0%
2,COc1ccc(C=O)c(O)c1,0%
3,COC1=C(Br)[C@@H](O)[C@@](O)(CC#N)C=C1Br,0%
4,COc1c(Br)cc2c(c1Br)OCO2,0%
5,COC1=C(Br)C(=O)[C@@](O)(CC#N)C=C1Br,0%
6,COC1=C(Br)[C@H](O)[C@@](O)(CC#N)C=C1Br,0%
7,COC1=C(Br)C(O)(O)[C@@](O)(CC#N)CC1Br (stereo partly drawn),0%
8,COc1c(Br)cc(CO)c(O)c1Br,0%
9,COc1c(Br)cc(O)c(O)c1Br,0%
